Where no end group is shown, it is not given here.
Experiments:
[1] = tested on: sexually mature female rabbits; test: Sexually mature female rabbits, intravenous GnRH-hecate, GnRH challenge day 6, sacrifice day 7 (Examples 47-48); assay type: in vivo, rabbit
Experimental: Nine sexually mature female rabbits were injected intravenously with saline containing 0 mg (n=4) (Treatment 47) or 10 mg GnRH-hecate (n=5) (Treatment 48). Rabbits were injected intramuscularly with GnRH on day 6 post-treatment. Blood samples were collected for radioimmunoassay of LH and FSH as described above, and the animals were sacrificed on day 7 post-treatment. […] Again, the effects were more pronounced on GnRH neurons than on staining of pituitary gonadotropes.
The number of ovulation sites in rabbits in Examples 47 and 48 treated with 10 mg GnRH-hecate were reduced as compared to saline controls. The mean number of ovulation sites in four saline controls equalled 12.2±5.4, with S.E.M.=2.7. The mean number of ovulation sites in the five rabbits given 10 mg of GnRH-hecate was 3.6±1.1, with S.E.M.=0.5. This difference from control was significant (p=0.025).
The “LH surge” (the level of LH at one hour post-GnRH challenge, minus the resting level before challenge) in the four controls was 61.2±16.5 ng/mL, with S.E.M.=8.3; and in the treated group was 49.6±26.1 ng/mL, with S.E.M.=12 (p=0.22). Thus there was a trend towards lower LH levels in the treated group.

[2] = tested on: sexually mature female New Zealand rabbits; test: Sexually mature female New Zealand rabbits, intravenous GnRH-hecate, GnRH challenge day 46, histology day 47 (Examples 44-46); assay type: in vivo, rabbit
Experimental: Seven sexually mature female New Zealand rabbits were injected intravenously with saline containing GnRH-hecate as follows:
Forty-six days later all rabbits were injected intramuscularly with 100 μg GnRH. Blood samples were collected at 0, 1, 4, and 24 hours, and LH and FSH levels in the blood samples were measured by radioimmunoassay. […] The rabbits were sacrificed the next day (day 47) for postmortem histological analysis. […] Ovarian and pituitary weights were reduced by the 10 mg GnRH-hecate treatment.

[3] = tested on: sexually immature female rats; test: Sexually immature (33 day old) female rats, intravenous GnRH-hecate dose series, sacrificed at 24 hours or 14 days (Examples 39-43); assay type: in vivo, rat; conditions: for abnormal GnRH-receptor-containing neurons: sacrificed fourteen days after treatment
Experimental: Sexually immature (33 day old) female rats (randomly allocated into groups of three) were injected intravenously with saline or GnRH-hecate in saline as follows:
Animals were sacrificed at 24 hours or at 14 days after treatment. […] In the rats sacrificed fourteen days after treatment, 66% and 87% of the GnRH-receptor-containing neurons were abnormal in the rats that had received 1.0 and 1.5 mg of GnRH-hecate, respectively. Axonal degeneration in the 1.5 mg GnRH-hecate group was accompanied by over 90% reduction in median eminence staining for GnRH.

GnRH receptor = target: T1, GnRH receptor (Rattus norvegicus, UniProt P30969); test: Displacement of radiolabelled monoiodinated-GnRH from rat pituitary membranes (Example 24); assay type: binding; conditions: molar basis over a 1000-fold concentration range (n=6); native GnRH = 100%
T1 construct: specifically displaced radiolabelled monoiodinated-GnRH from rat pituitary membranes; from tissue; host or cells: rat pituitary membranes
T1 sequence (P30969 1-327): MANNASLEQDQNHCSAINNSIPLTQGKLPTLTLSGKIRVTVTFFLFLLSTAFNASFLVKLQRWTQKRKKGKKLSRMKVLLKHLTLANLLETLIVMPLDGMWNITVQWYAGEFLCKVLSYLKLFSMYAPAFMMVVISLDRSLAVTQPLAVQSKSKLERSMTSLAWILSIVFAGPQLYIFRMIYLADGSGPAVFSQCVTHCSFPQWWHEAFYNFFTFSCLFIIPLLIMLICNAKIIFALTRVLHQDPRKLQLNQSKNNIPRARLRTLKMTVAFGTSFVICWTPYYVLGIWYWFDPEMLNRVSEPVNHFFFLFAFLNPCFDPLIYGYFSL
Source text: We also synthesized D-Lys^6GnRH (SEQ. ID NO. 13), so that hecate could be conjugated to the D-Lys^6, a position that could minimize interference with binding of the GnRH domain to the GnRH receptor. These synthetic peptides specifically displaced radiolabelled monoiodinated-GnRH from rat pituitary membranes.

[4] = 0.1 to 1.5 mg i.v., 24 hours or 14 days

Substance: GnRH-hecate: fusion peptide of modified GnRH bonded directly to the lytic peptide hecate, SEQ. ID NO. 3 (QHWSYGLRPGFALALKALKKALKKLKKALKKAL; ends and bridges not checked; also: GnRH part modified, modification not given here)
- amount of LH released in response to GnRH ([1]; 10 mg i.v. (n=5), GnRH i.m. on day 6 post-treatment): lower in the treated animals than in the controls
- mean number of ovulation sites ([1]; 10 mg i.v., five rabbits, S.E.M.=0.5, saline controls 12.2±5.4, p=0.025): 3.6±1.1
- LH surge (level of LH at one hour post-GnRH challenge, minus the resting level before challenge) ([1]; 10 mg i.v., S.E.M.=12, controls 61.2±16.5 ng/mL, p=0.22): 49.6 ± 26.1 ng/mL
- effects on peripheral tissues ([1]; 10 mg i.v., day 7): No effects
- effects on pituitary weight ([1]; 10 mg i.v., day 7): No effects
- numbers of GnRH-induced ovulations ([1]; 10 mg i.v., day 7): reduced
- numbers of tertiary ovarian follicles ([1]; 10 mg i.v., day 7): reduced
- LH release in response to 100 μg GnRH i.m. ([2]; 5 mg or 10 mg i.v., challenge forty-six days later, radioimmunoassay): released LH in response to the GnRH
- cells staining alpha-MSH in the pituitary ([2]; 5 mg or 10 mg i.v., day 47): increased numbers
- cells staining for LH in the pituitary ([2]; 5 mg or 10 mg i.v., day 47): reduced numbers
- hippocampus and other areas of the brain containing high concentrations of GnRH ([2]; 5 mg or 10 mg i.v., day 47): not discernibly affected
- immunoreactive GnRH in CNS areas normally containing cell bodies ([2]; 5 mg or 10 mg i.v., day 47): faint and diffusely localized
- numbers of GnRH-induced ovulations ([2]; 5 mg or 10 mg i.v., day 47): reduced
- numbers of corpora lutea ([2]; 5 mg or 10 mg i.v., day 47): reduced
- numbers of tertiary follicles ([2]; 5 mg or 10 mg i.v., day 47): reduced
- reduction in number of normal individual cell bodies ([2]; 5 mg or 10 mg i.v., day 47): at least 50%
- terminal fields, which normally contain the axons of GnRH receptor neurons ([2]; 5 mg or 10 mg i.v., day 47): not stained for GnRH
- number of PAS-stained pituitary cells in the pars distalis, relative to control rabbits ([2]; 5 mg or 10 mg i.v., day 47, control = 100%): 177%
- ovarian weights ([2]; 10 mg i.v., day 47): reduced
- pituitary weights ([2]; 10 mg i.v., day 47): reduced
- abnormal GnRH-receptor-containing neurons ([3]; 1.0 mg i.v.): 66%
- reduction in median eminence staining for GnRH ([3]; 1.5 mg i.v.): over 90%
- abnormal GnRH-receptor-containing neurons ([3]; 1.5 mg i.v.): 87%
- VP staining in the CNS [3, 4]: not altered
- precipitate in the brain [3, 4]: no precipitate was found in the brain
- morphology of GnRH-receptor-containing neurons ([3]; treatments with higher levels of GnRH-hecate): a large number of GnRH-receptor-containing neurons having abnormal morphologies
- specific displacement of the radiolabelled peptide relative to equimolar concentrations of GnRH (GnRH receptor): 123%±4%

Source: patent publication US6680058B1, “Compositions and methods for contraception in or sterilization of mammals” (Board of Supervisors of Louisiana State University and …, priority 1997, dated 2004)
